From article PMC11976443 (2025)

Test system: 5' FAM-CoA-seq10 aptamer (DNA, aptamer) ATGCAGTCGGCGTCGGACAGGCAAAGGGGAGAGTGATTATAATCACTCGGGACATGGGATCTGTCCGACGATGTAACGCTTCAC
Assay: fluorescence strand displacement
Settings: apparent; 50 nM aptamer, 1:5 3'-BHQ1 capture strand CTGTCCGACGCCGAC displaced

Kd: 1133 µM
SMILES: CC(C)(COP(=O)(O)OP(=O)(O)OC[C@H]1O[C@@H](n2cnc3c(N)ncnc32)[C@H](O)[C@@H]1OP(=O)(O)O)[C@@H](O)C(=O)NCCC(=O)NCCS
